Test system: 276233-004-R-J1-PDC complex spheroid viability
Assay: Anticancer human tumor 276233-004-R-J1-PDC patient-derived colon adenocarcinoma cell line growth inhibition [GQUAD]
Conditions: for IC50: curve of first compound; for viability, T/C: stronger effect = lower value
Description: DNA G-quadruplex Stabilizer Agents in Combinations in Complex Spheroids
A high-throughput screen of multi-cell type tumor spheroids was designed to identify active combinations of DNA G-quadruplex stabilizer agents and targeted small molecules. Complex spheroids include a stromal component modeled by human endothelial cells (HUVEC) and fibroblasts modeled by human mesenchymal stem cells (MSCs). The concentration ranges selected for each drug and investigational agent were based upon clinically achievable concentrations if the clinical Cmax of the agent was known.
Compounds. The drugs and investigational agents: pidnarulex (CX-5461; NSC782164), APTO-253 (NSC789042), BRACO-19 (NSC847499), peposertib (NSC802822), ceralasertib (NSC780249), elimusertib (NSC800525), camonsertib (NSC841442), AZD-1390 (NSC803789), olaparib (NSC753686), talazoparib (NSC767125), ART-558 (NSC835418), sotorasib (NSC818433), MRTX-1133 (NSC836407), SN-38 (NSC673596), topotecan (NSC609699), etoposide (NSC141540), doxorubicin (NSC123127), gemcitabine (NSC613327), 5-fluorouracil (NSC19893), paclitaxel (NSC125973), vemurafenib (NSC761431), panobinostat (NSC761190), R-306465 (JNJ-16241199; NSC773264), adavosertib (NSC754352), TP-3654 (NSC805149), carboplatin (NSC241240), KSQ-4279 (NSC840948), and staurosporine (NSC755774) were obtained from the National Cancer Institute (NCI) Developmental Therapeutics Program Chemical Repository (34). The FDA-approved anticancer drug set is available from the NCI Developmental Therapeutics Program. […] The stock solutions were prepared in dimethyl sulfoxide (DMSO, Sigma-Aldrich, St. Louis, MO, cat. D2650) at 800-fold the tested concentration and stored at -70 degrees C prior to their use. All drugs and investigational agents were tested over a range starting from a high concentration at or near the clinical Cmax and decreasing in half-log increments. If the clinical Cmax for an agent had not been determined, the highest concentration tested was 10 microM.
2.3 Cell Culture. All cells were maintained in an incubator at 37 degrees C and 5% CO2 with 95% humidity. The PDC lines were cultured according to standard operating procedures established by the NCI PDMR. All PDCs were thawed and cultured in Matrigel-coated flasks prepared with a working solution of 1X Ham's F-12 nutrient mix, without supplementation (Invitrogen, cat. 11765054), 100 U/mL penicillin-streptomycin (Invitrogen, cat. 15140122), and 2.5% Matrigel (Corning Inc., cat. 354248) for the first three passages. The 857933-349-R-J2-PDC line was cultured in 6C/Colon 1B media, which includes advanced DMEM/F-12 (Thermo Fisher Scientific, cat. 12634028), 10 mM HEPES (Thermo Fisher Scientific, cat. 15630080), 1X GlutaMAX supplement (Thermo Fisher Scientific, cat. 35050061), 0.1 mg/mL primocin (InvivoGen, cat. ant-pm-2), 10% defined fetal bovine serum, heat inactivated (HyClone Laboratories Inc., cat. SH30070.03HI), 50% L-WRN conditioned media (ATCC, cat. CRL-3276), 1.25 mM N-Acetyl-L-cysteine (Sigma-Aldrich, cat. A9165), 10 mM nicotinamide (Sigma-Aldrich, cat. N0636), 1X B-27 supplement (Thermo Fisher Scientific, cat. 17504044), 1X N-2 supplement (Thermo Fisher Scientific, cat. 17502048), 10 microM Y-27632 dihydrochloride (Tocris Bioscience, cat. 1254), and 50 ng/mL human EGF recombinant protein (Thermo Fisher Scientific, cat. PHG0311). The 485176-168-R4-J1-PDC line was cultured in Panc media, which includes all 6C/Colon 1B media components plus 100 ng/mL human FGF-10 (Thermo Fisher Scientific, cat. 100-26), 500 nM SB-431542 (Selleckchem, cat. S1067), and gastrin (Tocris, cat. 3006).
[…]

[1] = second compound 0.0316 µM, first compound 0.0316 µM
[2] = second compound 0.0316 µM, first compound 0.1 µM
[3] = second compound 0.0316 µM, first compound 0.316 µM
[4] = second compound 0.0316 µM, first compound 1 µM
[5] = second compound 0.0316 µM, first compound 3.16 µM
[6] = second compound 0.0316 µM, first compound 10 µM
[7] = second compound 0.1 µM, first compound 0.0316 µM
[8] = second compound 0.1 µM, first compound 0.1 µM
[9] = second compound 0.1 µM, first compound 0.316 µM
[10] = second compound 0.1 µM, first compound 1 µM
[11] = second compound 0.1 µM, first compound 3.16 µM
[12] = second compound 0.1 µM, first compound 10 µM
[13] = second compound 0.316 µM, first compound 0.0316 µM
[14] = second compound 0.316 µM, first compound 0.1 µM
[15] = second compound 0.316 µM, first compound 0.316 µM
[16] = second compound 0.316 µM, first compound 1 µM
[17] = second compound 0.316 µM, first compound 3.16 µM
[18] = second compound 0.316 µM, first compound 10 µM
[19] = second compound 1 µM, first compound 0.0316 µM
[20] = second compound 1 µM, first compound 0.1 µM
[21] = second compound 1 µM, first compound 0.316 µM
[22] = second compound 1 µM, first compound 1 µM
[23] = second compound 1 µM, first compound 3.16 µM
[24] = second compound 1 µM, first compound 10 µM
[25] = second compound 3.16 µM, first compound 0.0316 µM
[26] = second compound 3.16 µM, first compound 0.1 µM
[27] = second compound 3.16 µM, first compound 0.316 µM
[28] = second compound 3.16 µM, first compound 1 µM
[29] = second compound 3.16 µM, first compound 3.16 µM
[30] = second compound 3.16 µM, first compound 10 µM
[31] = second compound 10 µM, first compound 0.0316 µM
[32] = second compound 10 µM, first compound 0.1 µM
[33] = second compound 10 µM, first compound 0.316 µM
[34] = second compound 10 µM, first compound 1 µM
[35] = second compound 10 µM, first compound 3.16 µM
[36] = second compound 10 µM, first compound 10 µM
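Note: spheroids exposed to drugs for seven days.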
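Throughout, for viability, T/C: 100% = DMSO vehicle control viability.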

## O=c1[nH]cc(F)c(=O)[nH]1 + Cc1cnc(CNC(=O)c2c(=O)c3ccc(N4CCCN(C)CC4)nc3n3c2sc2ccccc23)cn1
Second compound 0.0316 µM
  IC50: > 10 µM
Second compound 0.1 µM
  IC50: > 10 µM
Second compound 0.316 µM
  IC50: > 10 µM
Second compound 1 µM
  IC50: > 10 µM
Second compound 3.16 µM
  IC50: > 10 µM
Second compound 10 µM
  IC50: > 10 µM
[1]
  viability, T/C: 86.8%
[2]
  viability, T/C: 82.2%
[3]
  viability, T/C: 90.7%
[4]
  viability, T/C: 81.2%
[5]
  viability, T/C: 98.8%
[6]
  viability, T/C: 97.5%
[7]
  viability, T/C: 97.1%
[8]
  viability, T/C: 96.5%
[9]
  viability, T/C: 89.1%
[10]
  viability, T/C: 89.7%
[11]
  viability, T/C: 95.1%
[12]
  viability, T/C: 102%
[13]
  viability, T/C: 87.4%
[14]
  viability, T/C: 99.8%
[15]
  viability, T/C: 99.1%
[16]
  viability, T/C: 85.6%
[17]
  viability, T/C: 98.6%
[18]
  viability, T/C: 99.1%
[19]
  viability, T/C: 78.2%
[20]
  viability, T/C: 87.6%
[21]
  viability, T/C: 80.4%
[22]
  viability, T/C: 90%
[23]
  viability, T/C: 92.7%
[24]
  viability, T/C: 94.4%
[25]
  viability, T/C: 82.7%
[26]
  viability, T/C: 74.9%
[27]
  viability, T/C: 79.2%
[28]
  viability, T/C: 82.8%
[29]
  viability, T/C: 83.7%
[30]
  viability, T/C: 82.2%
[31]
  viability, T/C: 69.8%
[32]
  viability, T/C: 79.3%
[33]
  viability, T/C: 80.5%
[34]
  viability, T/C: 86.2%
[35]
  viability, T/C: 61.8%
[36]
  viability, T/C: 79.6%

## COc1cc(C2c3cc4c(cc3C(OC3OC5COC(C)OC5C(O)C3O)C3COC(=O)C23)OCO4)cc(OC)c1O (centres undefined) + CN(C)c1ccc(Nc2c3ccc(NC(=O)CCN4CCCC4)cc3nc3cc(NC(=O)CCN4CCCC4)ccc23)cc1
Second compound 0.0316 µM
  IC50: > 10 µM
Second compound 0.1 µM
  IC50: > 10 µM
Second compound 0.316 µM
  IC50: > 10 µM
Second compound 1 µM
  IC50: > 10 µM
Second compound 3.16 µM
  IC50: > 10 µM
Second compound 10 µM
  IC50: 3.31 µM
[1]
  viability, T/C: 95.7%
[2]
  viability, T/C: 106%
[3]
  viability, T/C: 98.9%
[4]
  viability, T/C: 90.4%
[5]
  viability, T/C: 87%
[6]
  viability, T/C: 98.8%
[7]
  viability, T/C: 75.8%
[8]
  viability, T/C: 88.2%
[9]
  viability, T/C: 92.7%
[10]
  viability, T/C: 82.3%
[11]
  viability, T/C: 77.7%
[12]
  viability, T/C: 78.4%
[13]
  viability, T/C: 60.1%
[14]
  viability, T/C: 69%
[15]
  viability, T/C: 55.5%
[16]
  viability, T/C: 69.4%
[17]
  viability, T/C: 61.2%
[18]
  viability, T/C: 61.3%
[19]
  viability, T/C: 56.6%
[20]
  viability, T/C: 45.2%
[21]
  viability, T/C: 58.5%
[22]
  viability, T/C: 62.3%
[23]
  viability, T/C: 55.4%
[24]
  viability, T/C: 55%
[25]
  viability, T/C: 54.8%
[26]
  viability, T/C: 49%
[27]
  viability, T/C: 52.2%
[28]
  viability, T/C: 56.5%
[29]
  viability, T/C: 61.5%
[30]
  viability, T/C: 54.6%
[31]
  viability, T/C: 46.8%
[32]
  viability, T/C: 59.5%
[33]
  viability, T/C: 47.3%
[34]
  viability, T/C: 57.4%
[35]
  viability, T/C: 45.7%
[36]
  viability, T/C: 48.5%
